Data set [1] deals with Staphylococcus aureus A.T.C.C. 6538P. Description: Microbiological assay, standard disc plate assay. The format is cell-based. To be noted: against the standard antibiotic base (1000 mcg/mg). The source says:
6538P as the test organism.

The nature of data set [2]: Stability to boiling in buffer. The format is physicochemical. The source says: Further, the antibiotic is stable to boiling for at least thirty (30) minutes in MacIlvaines buffer from pH 2 - 8 and in sodium hydroxide-boric acid buffer from pH 8 - 10.
Data set [3] concerns Pseudomonas aeruginosa 236 - GR. The data set is described as follows: In vitro antibacterial activity, minimum inhibitory concentration. To be noted: Tryptose phosphate broth at pH 7.2. It counts as cell-based. The source says:
(§1) In vitro Antibacterial Activity
(§2) Minimum Inhibitory Concentration
(§3) Test Medium: Tryptose phosphate broth at pH 7.2.

In another data set the test system is Proteus mirabilis 8019. Described as above. The format is cell-based. To be noted: Tryptose phosphate broth at pH 7.2.
Description: as §1, §2, §3

Data set [4] has as its system Pseudomonas aeruginosa 130 - GR. The description is as above. The following applies: Tryptose phosphate broth at pH 7.2. The format is cell-based.
Description: as §1, §2, §3

The next data set concerns Streptococcus pyogenes C. The data set is described as above. It counts as cell-based. The following applies: Tryptose phosphate broth at pH 7.2.
Description: as §1, §2, §3

In data set [5] the test system is Klebsiella pneumoniae Ad 17 - kR. The data set is described as above. To be noted: Tryptose phosphate broth at pH 7.2. The format is cell-based.
Description: as §1, §2, §3

The next data set concerns Staphylococcus aureus 45. The data set is described as above. The following applies: Tryptose phosphate broth at pH 7.2. The format is cell-based.
Description: as §1, §2, §3

For data set [6], the system named is Staphylococcus aureus 209P. Described as above. It counts as cell-based. To be noted: Tryptose phosphate broth at pH 7.2.
Description: as §1, §2, §3

In data set [7] the test system is Salmonella paratyphi 13311. The description is as above. The format is cell-based. The following applies: Tryptose phosphate broth at pH 7.2.
Description: as §1, §2, §3

Another data set relates to Escherichia coli 11775. The description is as above. The format is cell-based. To be noted: Tryptose phosphate broth at pH 7.2.
Description: as §1, §2, §3

The test system of the next data set is Escherichia coli 578. The description is as above. It counts as cell-based. The following applies: Tryptose phosphate broth at pH 7.2.
Description: as §1, §2, §3

For a further data set, the system named is mice (CF-1). The data set is described as follows: Acute toxicity in mice. The format is in vivo. The following applies: sulfate salt. As to the method: ^b The acute toxicity of Antibiotic G-52 in the form of the sulfate
salt is determined in the standard manner by administration of the
antibiotic to mice (CF-1) intravenously, subcutaneously and
intraperitoneally. The results are analyzed by standard probit procedures
to determine the LD50 values with 95% confidence limits.

In data set [8] the test system is Staphylococcus aureus Gray. The data set is described as follows: In vivo protective activity in mice. On the set-up: species or system Mice (Carworth Farms CF-1). To be noted: S.C., single dose of antibiotic (sulfate) 1 hour after intraperitoneal infection, survivors at 48 hours. The protocol:
(§4) In vivo Activity of Antibiotic G-52 in Mice
(§5) ^a Mice (Carworth Farms CF-1 weighing about 18 - 20 grams) are treate
(§6) with a single dose of antibiotic (sulfate) one (1) hour after an
(§7) intraperitoneal infection with a lethal (10^7 organisms) quantity of
(§8) the infectious organism. The number of survivors are determined 48 hours
(§9) after infection and the data analyzed by standard probit procedures to
(§10) determine the PD50 values with 95% confidence limits.

For another data set, the system named is Pseudomonas aeruginosa. The data set is described as follows: In vivo protective activity in mice. The following applies: S.C., single dose of antibiotic (sulfate) 1 hour after intraperitoneal infection, survivors at 48 hours. The arrangement: species or system Mice (Carworth Farms CF-1). As to the method: as §4, §5, §6, §7, §8, §9, §10
A further data set has as its system Escherichia coli. The data set is described as follows: In vivo protective activity in mice. On the set-up: species or system Mice (Carworth Farms CF-1). To be noted: S.C., single dose of antibiotic (sulfate) 1 hour after intraperitoneal infection, survivors at 48 hours. The protocol: as §4, §5, §6, §7, §8, §9, §10

Structures can show the parent of a compound that is named as a salt.

As to `CNCC1=CCC(N)C(OC2C(N)CC(N)C(OC3OCC(C)(O)C(NC)C3O)C2O)O1` (centres unmarked) [Antibiotic G-52 sulfate], the “potency (microbiological assay)” value in data set [1] was “about 675 mcg/mg”; in data set [1] (listed as Antibiotic G-52 Sulfate) it was 660 mcg/mg.
The LD50 is the dose at which mortality reaches 50%. Take `CNCC1=CC[C@@H](N)[C@@H](O[C@H]2[C@H](O)[C@@H](O[C@H]3OC[C@](C)(O)[C@H](NC)[C@H]3O)[C@H](N)C[C@@H]2N)O1` [Antibiotic G-52]: the stable to boiling in data set [2] (MacIlvaines buffer, pH 2 - 8) was at least 30 min; in data set [2] (sodium hydroxide-boric acid buffer, pH 8 - 10), at least 30 min. For the same compound, in the data set “Solubility” (lower alcohols, dimethylformamide, dimethylsulfoxide, pyridine), the “solubility in polar organic solvents” value was “some degree of solubility in most polar organic solvents”. The solubility in water result in the data set “Solubility” (water) is reported as “very soluble in water”. The “Minimum Inhibitory Concentration (MIC)” value in data set [3] came out at 25 µg/mL; with Proteus mirabilis 8019 it was 7.5 µg/mL; in [4], 25 µg/mL; with Streptococcus pyogenes C, 25 µg/mL; in [5], 0.8 µg/mL; with Staphylococcus aureus 45, 0.8 µg/mL. For the same compound, the “Minimum Inhibitory Concentration (MIC)” value was 0.3 µg/mL in data set [6], 17.5 µg/mL in data set [7], 3.0 µg/mL in the data set on Escherichia coli 11775 and 7.5 µg/mL in the data set on Escherichia coli 578. Also, the LD50 was 200 mg/kg in the data set on mice (CF-1) (I.P.), 50 mg/kg in the data set on mice (CF-1) (I.V.) and 400 mg/kg with mice (CF-1) (S.C.). The PD50 in data set [8] is 2.5 mg/kg; with Pseudomonas aeruginosa, 1.5 mg/kg; in the data set with Escherichia coli it was 2.5 mg/kg. Besides, the “potency (microbiological assay)” value in data set [1] (listed as Antibiotic G-52 Base) is listed as “about 1000 mcg/mg”.

The record behind these values is US3956068A, “Antibiotic G-52 and method for the production thereof” (Schering Corporation, priority 1975, dated 1976).
